Six compounds from ChEMBL document CHEMBL5465560, “Selectivity Literature for EUbOPEN Chemogenomic Library” (2024) can be followed below.

Experiment [1] deals with T1, Tyrosine-protein kinase ZAP-70 (Homo sapiens) (UniProt P43403).
T1 sequence (whole entry): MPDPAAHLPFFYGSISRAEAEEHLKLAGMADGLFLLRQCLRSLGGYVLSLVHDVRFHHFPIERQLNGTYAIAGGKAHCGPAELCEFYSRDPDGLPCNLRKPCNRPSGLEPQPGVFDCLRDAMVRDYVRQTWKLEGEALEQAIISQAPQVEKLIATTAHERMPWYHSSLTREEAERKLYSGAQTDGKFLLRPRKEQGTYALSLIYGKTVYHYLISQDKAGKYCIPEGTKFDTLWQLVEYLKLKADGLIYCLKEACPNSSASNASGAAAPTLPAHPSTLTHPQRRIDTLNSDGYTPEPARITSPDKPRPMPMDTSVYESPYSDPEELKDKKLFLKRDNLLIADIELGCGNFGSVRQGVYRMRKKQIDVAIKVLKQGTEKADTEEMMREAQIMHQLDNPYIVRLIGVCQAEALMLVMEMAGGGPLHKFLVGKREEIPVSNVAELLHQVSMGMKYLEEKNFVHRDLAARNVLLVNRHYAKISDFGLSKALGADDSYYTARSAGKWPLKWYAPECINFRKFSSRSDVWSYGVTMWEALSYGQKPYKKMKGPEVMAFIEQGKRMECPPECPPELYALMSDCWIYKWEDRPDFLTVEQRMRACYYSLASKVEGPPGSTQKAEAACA
Nature of the experiment: Selectivity interaction (KinomeScan (DiscoverX)) EUB0000595a ZAP70. As to conditions: at 10 µM.

For experiment [2], the target named is Serine/threonine-protein kinase 24 (Homo sapiens) (UniProt Q9Y6E0). Nature of the experiment: Selectivity interaction (ActivX KiNativ screen (kinase selectivity in THP-1 cell lysates)) EUB0000639a STK24. Type of experiment: subcellular. As to conditions: lysate, at 0.2 µM.
Chain of Serine/threonine-protein kinase 24 (Homo sapiens) (Q9Y6E0 whole entry, looked up): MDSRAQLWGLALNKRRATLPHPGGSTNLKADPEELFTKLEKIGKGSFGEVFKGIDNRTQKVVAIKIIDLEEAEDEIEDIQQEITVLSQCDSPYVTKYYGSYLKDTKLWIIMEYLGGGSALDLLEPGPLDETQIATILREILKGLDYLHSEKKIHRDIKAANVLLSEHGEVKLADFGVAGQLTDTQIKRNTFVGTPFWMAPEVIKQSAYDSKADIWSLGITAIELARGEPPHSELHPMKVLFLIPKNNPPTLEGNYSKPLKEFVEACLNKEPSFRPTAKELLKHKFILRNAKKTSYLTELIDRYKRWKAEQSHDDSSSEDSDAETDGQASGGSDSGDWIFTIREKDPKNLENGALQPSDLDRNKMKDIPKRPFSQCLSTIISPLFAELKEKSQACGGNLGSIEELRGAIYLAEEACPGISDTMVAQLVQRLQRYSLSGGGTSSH
In experiment [3] the test system is Tyrosine-protein kinase ABL1 (Homo sapiens), P00519 [F317L]. The experiment is described as follows: Selectivity interaction (KinomeScan (DiscoverX)) EUB0001049a ABL1. The note with it: at 1 µM.
Chain of Tyrosine-protein kinase ABL1 (Homo sapiens), P00519 [F317L] (P00519 whole entry F317L): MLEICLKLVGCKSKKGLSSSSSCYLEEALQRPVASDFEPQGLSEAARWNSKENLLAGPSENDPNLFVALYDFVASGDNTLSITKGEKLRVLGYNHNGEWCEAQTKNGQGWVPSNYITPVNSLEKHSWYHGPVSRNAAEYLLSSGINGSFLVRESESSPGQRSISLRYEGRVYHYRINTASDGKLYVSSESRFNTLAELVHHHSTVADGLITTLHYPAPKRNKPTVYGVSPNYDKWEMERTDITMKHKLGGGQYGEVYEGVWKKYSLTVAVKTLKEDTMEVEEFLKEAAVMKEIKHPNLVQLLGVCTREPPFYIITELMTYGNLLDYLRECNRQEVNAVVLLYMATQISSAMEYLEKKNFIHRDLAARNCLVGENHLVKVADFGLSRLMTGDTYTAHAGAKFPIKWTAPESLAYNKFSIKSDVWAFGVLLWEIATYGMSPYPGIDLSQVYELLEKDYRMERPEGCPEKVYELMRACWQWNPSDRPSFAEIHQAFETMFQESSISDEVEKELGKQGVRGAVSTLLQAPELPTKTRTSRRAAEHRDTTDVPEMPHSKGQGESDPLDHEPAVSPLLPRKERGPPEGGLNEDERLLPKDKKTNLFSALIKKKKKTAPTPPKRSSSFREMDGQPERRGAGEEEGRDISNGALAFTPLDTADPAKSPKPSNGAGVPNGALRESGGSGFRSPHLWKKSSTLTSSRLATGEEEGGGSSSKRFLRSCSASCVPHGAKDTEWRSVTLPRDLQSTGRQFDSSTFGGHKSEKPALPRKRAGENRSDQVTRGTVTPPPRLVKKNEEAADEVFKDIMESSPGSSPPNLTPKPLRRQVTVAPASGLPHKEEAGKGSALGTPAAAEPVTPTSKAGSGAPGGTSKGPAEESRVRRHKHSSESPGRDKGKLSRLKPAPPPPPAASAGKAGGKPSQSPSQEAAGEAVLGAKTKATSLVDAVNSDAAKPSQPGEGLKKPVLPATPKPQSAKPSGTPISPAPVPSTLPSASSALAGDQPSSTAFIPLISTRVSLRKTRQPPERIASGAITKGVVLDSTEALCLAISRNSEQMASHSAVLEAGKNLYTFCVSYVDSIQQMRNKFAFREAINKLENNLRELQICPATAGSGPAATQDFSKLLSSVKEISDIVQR
The target in experiment [4] is Transient receptor potential cation channel subfamily M member 6 (Homo sapiens) (UniProt Q9BX84). Nature of the experiment: Selectivity interaction (KinomeScan (DiscoverX)) EUB0001049a TRPM6. The note with it: at 1 µM.
Chain of Transient receptor potential cation channel subfamily M member 6 (Homo sapiens) (Q9BX84 whole entry): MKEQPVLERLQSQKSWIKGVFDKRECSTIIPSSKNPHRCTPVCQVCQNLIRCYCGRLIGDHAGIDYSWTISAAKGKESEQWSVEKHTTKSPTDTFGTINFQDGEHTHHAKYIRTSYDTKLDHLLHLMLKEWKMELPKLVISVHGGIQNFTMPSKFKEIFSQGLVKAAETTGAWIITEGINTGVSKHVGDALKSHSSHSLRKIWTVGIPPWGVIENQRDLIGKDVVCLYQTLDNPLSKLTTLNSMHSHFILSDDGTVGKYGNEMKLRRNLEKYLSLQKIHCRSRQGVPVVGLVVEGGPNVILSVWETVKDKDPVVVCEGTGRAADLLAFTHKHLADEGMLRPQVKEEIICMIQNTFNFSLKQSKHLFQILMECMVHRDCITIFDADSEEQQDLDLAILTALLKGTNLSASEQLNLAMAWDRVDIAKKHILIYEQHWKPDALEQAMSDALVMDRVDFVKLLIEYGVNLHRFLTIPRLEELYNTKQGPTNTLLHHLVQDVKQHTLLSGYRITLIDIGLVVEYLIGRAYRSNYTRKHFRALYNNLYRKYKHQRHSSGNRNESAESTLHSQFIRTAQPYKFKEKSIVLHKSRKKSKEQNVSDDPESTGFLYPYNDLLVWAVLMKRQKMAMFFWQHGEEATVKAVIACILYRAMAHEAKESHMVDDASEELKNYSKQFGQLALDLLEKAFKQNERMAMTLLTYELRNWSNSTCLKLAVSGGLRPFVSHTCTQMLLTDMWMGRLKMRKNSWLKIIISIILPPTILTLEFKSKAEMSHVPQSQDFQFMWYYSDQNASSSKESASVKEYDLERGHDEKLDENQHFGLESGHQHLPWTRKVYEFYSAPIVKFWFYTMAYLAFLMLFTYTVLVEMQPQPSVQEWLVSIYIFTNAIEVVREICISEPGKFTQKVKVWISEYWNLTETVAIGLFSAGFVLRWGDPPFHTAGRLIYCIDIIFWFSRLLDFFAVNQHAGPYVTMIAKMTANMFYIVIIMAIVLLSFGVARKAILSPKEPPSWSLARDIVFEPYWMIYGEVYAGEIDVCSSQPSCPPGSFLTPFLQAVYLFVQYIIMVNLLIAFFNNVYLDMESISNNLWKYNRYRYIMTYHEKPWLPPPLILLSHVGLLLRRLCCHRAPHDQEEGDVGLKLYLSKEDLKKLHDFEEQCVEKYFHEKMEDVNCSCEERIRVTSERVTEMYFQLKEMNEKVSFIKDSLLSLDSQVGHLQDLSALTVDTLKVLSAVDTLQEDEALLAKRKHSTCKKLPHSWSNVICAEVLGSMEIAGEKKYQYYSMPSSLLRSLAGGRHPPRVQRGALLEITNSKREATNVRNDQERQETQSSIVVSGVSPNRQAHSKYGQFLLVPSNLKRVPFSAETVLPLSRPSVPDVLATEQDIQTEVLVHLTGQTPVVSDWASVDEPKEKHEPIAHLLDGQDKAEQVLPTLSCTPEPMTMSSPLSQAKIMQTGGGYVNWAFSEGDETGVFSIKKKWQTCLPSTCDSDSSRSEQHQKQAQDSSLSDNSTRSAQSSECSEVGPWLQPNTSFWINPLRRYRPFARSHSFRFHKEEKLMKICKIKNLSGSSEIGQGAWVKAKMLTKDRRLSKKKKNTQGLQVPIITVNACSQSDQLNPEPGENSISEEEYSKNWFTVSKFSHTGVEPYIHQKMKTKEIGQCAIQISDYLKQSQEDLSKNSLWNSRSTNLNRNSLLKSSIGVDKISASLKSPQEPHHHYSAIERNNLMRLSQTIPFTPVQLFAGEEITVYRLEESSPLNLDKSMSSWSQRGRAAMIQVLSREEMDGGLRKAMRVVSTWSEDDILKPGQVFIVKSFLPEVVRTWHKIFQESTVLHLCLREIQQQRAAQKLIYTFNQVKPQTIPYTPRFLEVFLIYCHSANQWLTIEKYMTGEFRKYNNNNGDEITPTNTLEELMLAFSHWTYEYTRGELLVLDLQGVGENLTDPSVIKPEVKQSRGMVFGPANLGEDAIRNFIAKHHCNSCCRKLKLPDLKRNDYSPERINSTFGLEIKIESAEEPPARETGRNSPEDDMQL
The target of experiment [5] is T2, Ephrin type-A receptor 3 (Homo sapiens) (UniProt P29320).
T2 sequence (whole entry): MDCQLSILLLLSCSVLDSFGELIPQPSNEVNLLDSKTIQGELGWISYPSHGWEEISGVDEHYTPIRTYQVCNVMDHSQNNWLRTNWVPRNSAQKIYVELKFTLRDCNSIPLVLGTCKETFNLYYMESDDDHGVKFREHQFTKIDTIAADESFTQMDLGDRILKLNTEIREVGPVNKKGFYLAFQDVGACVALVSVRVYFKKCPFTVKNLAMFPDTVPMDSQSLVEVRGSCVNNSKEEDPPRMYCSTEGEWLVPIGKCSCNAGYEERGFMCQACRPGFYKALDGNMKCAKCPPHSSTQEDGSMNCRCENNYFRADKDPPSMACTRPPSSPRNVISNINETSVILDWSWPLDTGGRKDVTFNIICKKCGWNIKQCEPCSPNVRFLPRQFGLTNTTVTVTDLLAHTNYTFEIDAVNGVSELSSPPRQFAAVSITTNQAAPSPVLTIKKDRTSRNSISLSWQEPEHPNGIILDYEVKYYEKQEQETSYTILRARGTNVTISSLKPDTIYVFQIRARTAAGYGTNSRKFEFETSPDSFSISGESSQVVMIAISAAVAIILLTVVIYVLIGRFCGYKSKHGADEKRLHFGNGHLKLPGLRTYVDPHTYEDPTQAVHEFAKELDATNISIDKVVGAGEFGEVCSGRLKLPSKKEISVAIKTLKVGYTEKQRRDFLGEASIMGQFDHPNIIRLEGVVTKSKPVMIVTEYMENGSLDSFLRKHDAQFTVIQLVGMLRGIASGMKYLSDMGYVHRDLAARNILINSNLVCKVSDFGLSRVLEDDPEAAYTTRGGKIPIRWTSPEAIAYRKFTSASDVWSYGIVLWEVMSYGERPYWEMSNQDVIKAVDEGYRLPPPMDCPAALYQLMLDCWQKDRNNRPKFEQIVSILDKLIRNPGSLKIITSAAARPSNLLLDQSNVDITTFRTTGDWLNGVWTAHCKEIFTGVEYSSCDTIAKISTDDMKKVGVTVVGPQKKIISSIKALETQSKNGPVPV
The experiment is described as follows: Selectivity interaction (KinomeScan (DiscoverX)) EUB0000618a EPHA3. As to conditions: at 10 µM.

In experiment [6] the target is T3, Serine/threonine-protein kinase Nek3 (Homo sapiens) (UniProt P51956).
T3 sequence (whole entry): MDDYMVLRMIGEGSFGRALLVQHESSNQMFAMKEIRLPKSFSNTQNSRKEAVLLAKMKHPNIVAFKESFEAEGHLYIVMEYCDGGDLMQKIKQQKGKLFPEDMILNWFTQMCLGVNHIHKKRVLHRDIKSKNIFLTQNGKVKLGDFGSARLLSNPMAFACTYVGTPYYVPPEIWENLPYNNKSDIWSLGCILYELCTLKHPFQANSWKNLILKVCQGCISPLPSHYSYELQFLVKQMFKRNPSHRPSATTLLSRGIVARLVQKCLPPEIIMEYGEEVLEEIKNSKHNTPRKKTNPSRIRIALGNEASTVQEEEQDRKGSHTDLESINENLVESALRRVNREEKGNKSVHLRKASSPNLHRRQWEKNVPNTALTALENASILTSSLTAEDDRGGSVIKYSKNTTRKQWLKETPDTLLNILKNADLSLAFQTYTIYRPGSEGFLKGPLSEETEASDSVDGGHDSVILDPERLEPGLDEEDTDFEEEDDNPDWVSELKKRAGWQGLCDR
The experiment is described as follows: Selectivity interaction (KinomeScan (DiscoverX)) EUB0001079a NEK3. The note with it: at 1 µM.

The target in experiment [7] is MAP kinase-activated protein kinase 2 (Homo sapiens, UniProt P49137). Nature of the experiment: Selectivity interaction (KinomeScan (DiscoverX)) EUB0000229b MAPKAPK2. As to conditions: at 10 µM.
Chain of MAP kinase-activated protein kinase 2 (P49137 whole entry, looked up): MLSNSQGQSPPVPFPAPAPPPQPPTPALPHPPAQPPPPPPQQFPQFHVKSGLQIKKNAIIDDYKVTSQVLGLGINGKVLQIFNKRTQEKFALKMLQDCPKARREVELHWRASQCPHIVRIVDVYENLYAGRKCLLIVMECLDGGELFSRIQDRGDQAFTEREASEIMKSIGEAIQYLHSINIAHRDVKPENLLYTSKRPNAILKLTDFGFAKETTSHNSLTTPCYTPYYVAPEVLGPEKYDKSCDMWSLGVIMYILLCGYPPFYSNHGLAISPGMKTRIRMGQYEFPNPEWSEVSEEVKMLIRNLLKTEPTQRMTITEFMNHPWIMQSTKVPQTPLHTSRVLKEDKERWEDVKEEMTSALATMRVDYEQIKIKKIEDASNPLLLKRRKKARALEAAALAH

In the case of `COCC(=O)NC/C=C/c1ccc2ncnc(Nc3ccc(Oc4ccc(C)nc4)c(C)c3)c2c1` [CP-724714], the % of control in experiment [1] was found to be 100%.

`CC[C@@H]1[C@H](F)C(=O)N[C@@H]1COc1nccc2cc(C(N)=O)c(OC)cc12` [ZIMLOVISERTIB]: the % of inhibition in experiment [2] was found to be 5.6%.

As for `COc1cc(Nc2nc(C)cc(-c3cnn4nc(OC)ccc34)n2)cc(C(F)(F)F)c1`, the % of control in experiment [3] was 91%; in experiment [4] it was 96%.

For the compound `O[C@H]1CC[C@H](Nc2ncc3nc(Nc4c(F)cc(F)cc4F)n([C@H]4CCOC4)c3n2)CC1`, the % of control in experiment [5] stood at 85%. `Nc1cnc(N2CCc3cc(S(=O)(=O)Nc4c(F)cc(Cl)cc4F)cc(N4CCCC4=O)c32)nc1` [TP-020n] registered a % of control in experiment [6] of 100%. On to `COc1cc(N(C)c2ccnc3ccc(C(F)(F)F)cc23)cc(OC)c1OC`, for which, in experiment [7], the % binding is 93%.
